Results reported in ChEMBL document CHEMBL4699623 (J Med Chem, 2020).

How the values were obtained:
[1] = molecular target: T1, Phenylethanolamine N-methyltransferase (Homo sapiens) (UniProt P11086)
T1 sequence (whole entry): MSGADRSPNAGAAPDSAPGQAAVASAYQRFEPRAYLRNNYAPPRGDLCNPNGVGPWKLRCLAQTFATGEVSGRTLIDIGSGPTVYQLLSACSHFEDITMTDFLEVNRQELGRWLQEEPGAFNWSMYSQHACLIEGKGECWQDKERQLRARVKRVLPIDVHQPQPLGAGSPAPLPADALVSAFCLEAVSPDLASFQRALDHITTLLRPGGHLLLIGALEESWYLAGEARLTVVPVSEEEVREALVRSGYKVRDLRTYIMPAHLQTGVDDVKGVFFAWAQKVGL

[2] = molecular target: T2, Alpha-2A adrenergic receptor (Rattus norvegicus, UniProt P22909); assay: Displacement of [3H]-clonidine from Sprague-Dawley rat alpha2 adrenergic receptor by radioligand binding assay
T2 sequence (P22909 whole entry): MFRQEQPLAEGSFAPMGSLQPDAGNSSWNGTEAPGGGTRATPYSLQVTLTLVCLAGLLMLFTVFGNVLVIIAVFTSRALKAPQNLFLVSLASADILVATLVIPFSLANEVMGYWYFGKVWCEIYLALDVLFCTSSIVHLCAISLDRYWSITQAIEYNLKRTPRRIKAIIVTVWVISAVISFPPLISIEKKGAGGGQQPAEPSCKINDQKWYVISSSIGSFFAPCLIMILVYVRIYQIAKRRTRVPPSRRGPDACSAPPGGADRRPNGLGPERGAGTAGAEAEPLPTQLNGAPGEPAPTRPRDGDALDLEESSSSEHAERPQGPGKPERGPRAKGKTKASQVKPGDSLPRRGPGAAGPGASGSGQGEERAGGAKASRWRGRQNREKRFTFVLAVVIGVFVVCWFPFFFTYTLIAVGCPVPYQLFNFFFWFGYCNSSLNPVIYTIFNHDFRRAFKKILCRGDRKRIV

[3] = molecular target: T3, Phenylethanolamine N-methyltransferase (Homo sapiens, UniProt P11086); assay: Competitive inhibition of C-terminal hexahistidine tag in human recombinant PNMT expressed in Escherichia coli assessed as inhibition constant using AdoMet as substrate in presence of 100 uM PEA as co-substrate by Sigma-plot analysis
T3 sequence (P11086 whole entry): T1 sequence (whole entry)

| Ki [3] [µM] | SMILES | Kis [1] [µM] | Ki [2] [µM] |
| --- | --- | --- | --- |
| – | NC(=O)C1Cc2ccccc2CN1 (stereo not given) | 31 | 250 |
| 14 | Nc1ncnc2c1ncn2[C@@H]1O[C@H](CSCC[C@H](N)C(=O)O)[C@@H](O)[C@H]1O [S-ADENOSYLHOMOCYSTEINE] | – | – |
| – | NCC1Cc2ccccc2CN1 (stereo not given) | 1.4 | 1.5 |
